Measurements: ChEMBL document CHEMBL2321779, “Aminophenoxazinones as inhibitors of indoleamine 2,3-dioxygenase (IDO). Synthesis of exfoliazone and chandrananimycin A” (J Med Chem, 2013)

Experiments:
[1] = target: T1, Indoleamine 2,3-dioxygenase 1 (Homo sapiens, UniProt P14902); experiment: Inhibition of human recombinant N-terminus 6X-histidine-tagged indoleamine 2,3-dioxygenase expressed in Escherichia coli assessed as inhibition of L-tryptophan to N-formylkynurenine formation measured as residual enzyme activity at 0.1 uM incubated for 10 mins prior to substrate addition measured …
Target sequence in this assay (P14902 whole entry, looked up): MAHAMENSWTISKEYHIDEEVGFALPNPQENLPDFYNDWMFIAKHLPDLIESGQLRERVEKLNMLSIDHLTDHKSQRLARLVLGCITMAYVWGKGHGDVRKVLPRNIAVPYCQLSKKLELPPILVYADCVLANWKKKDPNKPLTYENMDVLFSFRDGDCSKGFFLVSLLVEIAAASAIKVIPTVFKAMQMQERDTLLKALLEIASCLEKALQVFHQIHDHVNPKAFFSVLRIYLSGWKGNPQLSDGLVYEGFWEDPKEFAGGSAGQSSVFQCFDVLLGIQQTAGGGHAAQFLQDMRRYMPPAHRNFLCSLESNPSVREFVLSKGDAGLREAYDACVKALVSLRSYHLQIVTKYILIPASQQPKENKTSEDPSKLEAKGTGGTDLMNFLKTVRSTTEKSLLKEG

[2] = target: T1, Indoleamine 2,3-dioxygenase 1; experiment: Inhibition of human recombinant N-terminus 6X-histidine-tagged indoleamine 2,3-dioxygenase expressed in Escherichia coli assessed as inhibition of L-tryptophan to N-formylkynurenine formation measured as residual enzyme activity at 1 uM incubated for 10 mins prior to substrate addition measured …; values are per cent of control
Target sequence in this assay (P14902 whole entry, looked up): as above

[3] = target: T1, Indoleamine 2,3-dioxygenase 1; experiment: Inhibition of human recombinant N-terminus 6X-histidine-tagged indoleamine 2,3-dioxygenase expressed in Escherichia coli assessed as inhibition of L-tryptophan to N-formylkynurenine formation measured as residual enzyme activity at 10 uM incubated for 10 mins prior to substrate addition measured …; values are per cent of control
Target sequence in this assay (P14902 whole entry, looked up): as above

[4] = target: T1, Indoleamine 2,3-dioxygenase 1; experiment: Inhibition of human recombinant N-terminus 6X-histidine-tagged indoleamine 2,3-dioxygenase expressed in Escherichia coli assessed as inhibition of L-tryptophan to N-formylkynurenine formation measured as residual enzyme activity incubated for 10 mins prior to substrate addition measured after 30 mins by UV-vis spectrophotometric analysis relative to DMSO-treated control
Target sequence in this assay (P14902 whole entry): as the sequence (P14902 whole entry, looked up) above

Row | SMILES | residual activity [1] [%] | residual activity [2] [%] | residual activity [3] [%] | IC50 [4] [nM] | Ki [4] [nM]
1 | CC(=O)Nc1cc2nc3cc(CO)ccc3oc-2cc1=O | 85 | 82 | 74 | – | –
2 | Cc1c2nc3c(C)cccc3oc-2cc(=O)c1N | 98 | 100 | 95 | – | –
3 | CC(=O)Nc1cc2nc3c(O)cccc3oc-2cc1=O | 100 | 99 | 92 | – | –
4 | COC(=O)c1c2nc3c(C(=O)OC)ccc(C)c3oc-2c(C)c(=O)c1N | 66 | 29 | 24 | – | –
5 | Nc1c(C(=O)O)c2nc3c(C(=O)O)cccc3oc-2cc1=O [CINNABARINIC ACID] | 71 | 23 | 11 | 460 | 326
6 | COC(=O)c1c2nc3cc(CO)ccc3oc-2cc(=O)c1N | 95 | 75 | 34 | – | –

Results, then the compound that gave them:

Row | residual activity [1] [%] | residual activity [2] [%] | residual activity [3] [%] | IC50 [4] [nM] | Ki [4] [nM] | SMILES
7 | 84 | 87 | 80 | – | – | Nc1cc2nc3cc(CO)ccc3oc-2cc1=O
8 | 99 | 100 | 91 | – | – | Cc1ccc2oc3cc(=O)c(N)cc-3nc2c1
9 | 82 | 94 | 74 | – | – | Nc1cc2nc3ccccc3oc-2cc1=O
10 | 94 | 60 | 30 | – | – | COC(=O)c1c2nc3c(C(=O)OC)cccc3oc-2cc(=O)c1N
11 | 100 | 100 | 97 | – | – | Nc1cc2nc3c(O)cccc3oc-2cc1=O
